Experimental data reported in patent US6737383B1, “Herbicidal oxadiazolidines” (priority 1999, dated 2004).

Tests used:
giant foxtail = assay: Test B pre/postemergence giant foxtail; format: in vivo, Setaria faberii
Method in brief: (§1)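 Herbicidal effect was estimated by eye on a ten-point control scale after plants spent twelve to sixteen days in a greenhouse following soil or foliar treatment. Foliar sprays targeted plants at one to four leaves; all doses were formulated in a non-phytotoxic solvent with surfactant.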

bamyardgrass = assay: Test B flood test barnyardgrass; format: in vivo, Echinochloa crus-galli
Method in brief: (§2)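 Each value is a visual injury score relative to controls, with 10 meaning complete control and 0 no effect. Evaluation took place twelve to sixteen days after the 2-leaf-stage plants were treated and kept in the greenhouse.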

pigweed = assay: Test B pre/postemergence pigweed; format: in vivo, Amaranthus retroflexus
Method in brief: as §1

rape = assay: Test B pre/postemergence rape; format: in vivo, Brassica napus
Method in brief: as §1

cocklebur = assay: Test B pre/postemergence cocklebur; format: in vivo, Xanthium strumarium
Method in brief: as §1

purple nutsedge = assay: Test B pre/postemergence purple nutsedge; format: in vivo, Cyperus rotundus; details: Postemergence
Method in brief: as §1

bedstraw = assay: Test B pre/postemergence bedstraw; format: in vivo, Galium aparine
Method in brief: as §1

wheat = assay: Test B pre/postemergence wheat; format: in vivo, Triticum aestivum; details: Preemergence
Method in brief: as §1

blackgrass = assay: Test B pre/postemergence blackgrass; format: in vivo, Alopecurus myosuroides
Method in brief: as §1

duck salad = assay: Test B flood test duck salad; format: in vivo, Heteranthera limosa
Method in brief: as §2

rice = assay: Test B flood test rice; format: in vivo, Oryza sativa
Method in brief: as §2

velvetleaf = assay: Test B pre/postemergence velvetleaf; format: in vivo, Abutilon theophrasti; details: Preemergence
Method in brief: as §1

smallflower flatsedge = assay: Test B flood test smallflower flatsedge; format: in vivo, Cyperus difformis
Method in brief: as §2

crabgrass = assay: Test B pre/postemergence crabgrass; format: in vivo, Digitaria sanguinalis
Method in brief: as §1

surinam grass = assay: Test B pre/postemergence surinam grass; format: in vivo, Brachiaria decumbens
Method in brief: as §1

corn = assay: Test B pre/postemergence corn; format: in vivo, Zea mays
Method in brief: as §1

wild oat = assay: Test B pre/postemergence wild oat; format: in vivo, Avena fatua; details: Preemergence
Method in brief: as §1

morningglory = assay: Test B pre/postemergence morningglory; format: in vivo, Ipomoea hederacea
Method in brief: as §1

soybean = assay: Test B pre/postemergence soybean; format: in vivo, Glycine max; details: Preemergence
Method in brief: as §1

sugar beet = assay: Test B pre/postemergence sugar beet; format: in vivo, Beta vulgaris; details: Preemergence
Method in brief: as §1

[1] = Preemergence, Rate 31 g/ha, visual rating, scale 0 to 10 (0 no effect, 10 complete control)
[2] = Preemergence, Rate 62 g/ha, scale of 0 to 10 where 0 is no effect and 10 is complete control
[3] = Preemergence, Rate 250 g/ha, scale of 0 to 10 where 0 is no effect and 10 is complete control
[4] = Rate 31 g/ha, Postemergence, scale 0 to 10
[5] = Rate 125 g/ha, Preemergence, scale of 0 to 10 where 0 is no effect and 10 is complete control
[6] = Rate 62 g/ha, headed Pre-emergence (flood test species), scale 0 to 10 (0 no effect, 10 complete control)
[7] = Rate 125 g/ha, Pre-emergence, flood test species, scale 0 to 10 where 0 is no effect and 10 is complete control
[8] = Rate 250 g/ha, Pre-emergence, flood-test species, scale 0 to 10, 0 is no effect, 10 is complete control
[9] = Rate 500 g/ha, Pre-emergence, flood test species, scale 0 to 10 (0 no effect, 10 complete control)
[10] = Rate 62 g/ha, Postemergence, scale of 0 to 10 where 0 is no effect and 10 is complete control
[11] = Rate 125 g/ha, Postemergence, scale 0 to 10
[12] = Rate 31 g/ha, visual rating, scale 0 to 10 (0 no effect, 10 complete control)
[13] = Rate 62 g/ha, scale of 0 to 10 where 0 is no effect and 10 is complete control
[14] = Rate 250 g/ha, scale of 0 to 10 where 0 is no effect and 10 is complete control
[15] = Rate 125 g/ha, scale of 0 to 10 where 0 is no effect and 10 is complete control

SMILES: CC(C)N(C(=O)n1oc(=O)n(CCc2ccccc2)c1=O)c1ccc(F)cc1 [Compound 250]
- Giant foxtail plant response rating (giant foxtail; [1]): 7
- Giant foxtail plant response rating (giant foxtail; [2]): 8
- Giant foxtail plant response rating (giant foxtail; [3]): 10
- Giant foxtail plant response rating (giant foxtail; [4]): 0
- Giant foxtail plant response rating (giant foxtail; [5]): 8
- Plant response rating (0 to 10; 0 is no effect, 10 is complete control), Giant foxtail (giant foxtail; Rate 250 g/ha, Postemergence): 0
- Barnyardgrass plant response rating (bamyardgrass; [6]): 0
- Barnyardgrass plant response rating (bamyardgrass; [7]): 0
- Barnyardgrass plant response rating (bamyardgrass; [8]): 0
- Barnyardgrass plant response rating (bamyardgrass; [9]): 0
- Redroot pigweed plant response rating (pigweed; [1]): 0
- Redroot pigweed plant response rating (pigweed; [2]): 0
- Redroot pigweed plant response rating (pigweed; [3]): 3
- Redroot pigweed plant response rating (pigweed; [4]): 0
- Redroot pigweed plant response rating (pigweed; [5]): 3
- Plant response rating (0 to 10; 0 is no effect, 10 is complete control), Redroot pigweed (pigweed; Rate 250 g/ha, Postemergence): 0
- Rape plant response rating (rape; [1]): 0
- Rape plant response rating (rape; [2]): 0
- Rape plant response rating (rape; [3]): 0
- Rape plant response rating (rape; [4]): 0
- Rape plant response rating (rape; [5]): 0
- Plant response rating (0 to 10; 0 is no effect, 10 is complete control), Rape (rape; Rate 250 g/ha, Postemergence): 3
- Cocklebur plant response rating (cocklebur; [1]): 0
- Cocklebur plant response rating (cocklebur; [2]): 0
- Cocklebur plant response rating (cocklebur; [3]): 0
- Cocklebur plant response rating (cocklebur; [4]): 0
- Cocklebur plant response rating (cocklebur; [10]): 0
- Cocklebur plant response rating (cocklebur; [11]): 0
- Cocklebur plant response rating (cocklebur; [5]): 0
- Plant response rating (0 to 10; 0 is no effect, 10 is complete control), Cocklebur (cocklebur; Rate 250 g/ha, Postemergence): 1
- Nutsedge plant response rating (purple nutsedge; Rate 31 g/ha, scale 0 to 10): 0
- Plant response rating (0 to 10; 0 is no effect, 10 is complete control), Nutsedge (purple nutsedge; Rate 250 g/ha): 0
- Bedstraw plant response rating (bedstraw; [1]): 0
- Bedstraw plant response rating (bedstraw; [2]): 0
- Bedstraw plant response rating (bedstraw; [3]): 0
- Bedstraw plant response rating (bedstraw; [4]): 0
- Bedstraw plant response rating (bedstraw; [10]): 0
- Bedstraw plant response rating (bedstraw; [11]): 0
- Bedstraw plant response rating (bedstraw; [5]): 0
- Plant response rating (0 to 10; 0 is no effect, 10 is complete control), Bedstraw (bedstraw; Rate 250 g/ha, Postemergence): 9
- Wheat plant response rating (wheat; [12]): 0
- Wheat plant response rating (wheat; [13]): 0
- Wheat plant response rating (wheat; [14]): 0
- Wheat plant response rating (wheat; [15]): 0
- Blackgrass plant response rating (blackgrass; [1]): 0
- Blackgrass plant response rating (blackgrass; [2]): 0
- Blackgrass plant response rating (blackgrass; [3]): 0
- Blackgrass plant response rating (blackgrass; [4]): 0
- Blackgrass plant response rating (blackgrass; [10]): 0
- Blackgrass plant response rating (blackgrass; [11]): 0
- Blackgrass plant response rating (blackgrass; [5]): 0
- Plant response rating (0 to 10; 0 is no effect, 10 is complete control), Blackgrass (blackgrass; Rate 250 g/ha, Postemergence): 2
- Ducksalad plant response rating (duck salad; [6]): 0
- Ducksalad plant response rating (duck salad; [7]): 0
- Ducksalad plant response rating (duck salad; [8]): 0
- Ducksalad plant response rating (duck salad; [9]): 4
- Rice plant response rating (rice; [6]): 0
- Rice plant response rating (rice; [7]): 0
- Rice plant response rating (rice; [8]): 0
- Rice plant response rating (rice; [9]): 0
- Velvetleaf plant response rating (velvetleaf; [12]): 0
- Velvetleaf plant response rating (velvetleaf; [13]): 0
- Velvetleaf plant response rating (velvetleaf; [14]): 0
- Velvetleaf plant response rating (velvetleaf; [15]): 0
- S. Flatsedge plant response rating (smallflower flatsedge; [6]): 0
- S. Flatsedge plant response rating (smallflower flatsedge; [7]): 0
- S. Flatsedge plant response rating (smallflower flatsedge; [8]): 0
- S. Flatsedge plant response rating (smallflower flatsedge; [9]): 0
- Crabgrass plant response rating (crabgrass; [1]): 0
- Crabgrass plant response rating (crabgrass; [2]): 2
- Crabgrass plant response rating (crabgrass; [3]): 8
- Crabgrass plant response rating (crabgrass; [4]): 0
- Crabgrass plant response rating (crabgrass; [5]): 4
- Plant response rating (0 to 10; 0 is no effect, 10 is complete control), Crabgrass (crabgrass; Rate 250 g/ha, Postemergence): 0
- B. signalgrass plant response rating (surinam grass; [1]): 0
- B. signalgrass plant response rating (surinam grass; [2]): 0
- B. signalgrass plant response rating (surinam grass; [3]): 0
- B. signalgrass plant response rating (surinam grass; [4]): 0
- B. signalgrass plant response rating (surinam grass; [10]): 0
- B. signalgrass plant response rating (surinam grass; Rate 125 g/ha, Postemergence, scale 0 (no effect) to 10 (complete control)): 0
- B. signalgrass plant response rating (surinam grass; [5]): 0
- Plant response rating (0 to 10; 0 is no effect, 10 is complete control), B. signalgrass (surinam grass; Rate 250 g/ha, Postemergence): 0
- Corn plant response rating (corn; [1]): 0
- Corn plant response rating (corn; [2]): 0
- Corn plant response rating (corn; [3]): 0
- Corn plant response rating (corn; [4]): 0
- Corn plant response rating (corn; [10]): 0
- Corn plant response rating (corn; [11]): 0
- Corn plant response rating (corn; [5]): 0
- Plant response rating (0 to 10; 0 is no effect, 10 is complete control), Corn (corn; Rate 250 g/ha, Postemergence): 0
- Wild oats plant response rating (wild oat; [12]): 0
- Wild oats plant response rating (wild oat; [13]): 0
- Wild oats plant response rating (wild oat; [14]): 0
- Wild oats plant response rating (wild oat; [15]): 0
- Morningglory plant response rating (morningglory; [1]): 0
- Morningglory plant response rating (morningglory; [2]): 0
- Morningglory plant response rating (morningglory; [3]): 0
- Morningglory plant response rating (morningglory; [4]): 4
- Morningglory plant response rating (morningglory; [5]): 0
- Plant response rating (0 to 10; 0 is no effect, 10 is complete control), Morningglory (morningglory; Rate 250 g/ha, Postemergence): 6
- Soybean plant response rating (soybean; [12]): 0
- Soybean plant response rating (soybean; [13]): 0
- Soybean plant response rating (soybean; [14]): 0
- Soybean plant response rating (soybean; [15]): 0
- Sugarbeets plant response rating (sugar beet; [12]): 0
- Sugarbeets plant response rating (sugar beet; [13]): 0
- Sugarbeets plant response rating (sugar beet; [14]): 5
- Sugarbeets plant response rating (sugar beet; [15]): 0
